According to PubChem BioAssay (NCI):
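96-well plates; 48 h exposure; 5 concentrations. Endpoints by linear interpolation between flanking doses. Not reached: highest tested concentration assigned. GI50 = concentration required for 50% inhibition of growth. At the TGI there is no net growth.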

How the values were obtained:
Assay in all cases: inhibition of tumour cell growth, NCI panel, 48 h
SK-MEL-28 melanoma = tested on: SK-MEL-28 melanoma
HOP-62 NSCLC = tested on: HOP-62 NSCLC
MDA-MB-435 = tested on: MDA-MB-435
SF-295 CNS = tested on: SF-295 CNS
A549 NSCLC = tested on: A549 NSCLC
786-0 renal = tested on: 786-0 renal
RXF 393 renal = tested on: RXF 393 renal
CCRF-CEM leukemia = tested on: CCRF-CEM leukemia
UACC-62 melanoma = tested on: UACC-62 melanoma
NCI-H226 lung = tested on: NCI-H226 lung
UACC-257 melanoma = tested on: UACC-257 melanoma
OVCAR-3 ovarian = tested on: OVCAR-3 ovarian
NCI/ADR-RES ovarian = tested on: NCI/ADR-RES ovarian
HS 578T breast = tested on: HS 578T breast
SF-268 CNS = tested on: SF-268 CNS
OVCAR-5 ovarian = tested on: OVCAR-5 ovarian
ACHN renal = tested on: ACHN renal
DU-145 prostate = tested on: DU-145 prostate
NCI-H522 lung = tested on: NCI-H522 lung
SW-620 colon = tested on: SW-620 colon
M14 melanoma = tested on: M14 melanoma
K-562 leukemia = tested on: K-562 leukemia
SF-539 CNS = tested on: SF-539 CNS
COLO 205 colon = tested on: COLO 205 colon
SN12C renal = tested on: SN12C renal
HCT-15 colon = tested on: HCT-15 colon
U251 CNS = tested on: U251 CNS
MOLT-4 leukemia = tested on: MOLT-4 leukemia
HCT-116 colon = tested on: HCT-116 colon
HCC-2998 colon = tested on: HCC-2998 colon
SK-OV-3 ovarian = tested on: SK-OV-3 ovarian
TK-10 renal = tested on: TK-10 renal
A498 renal = tested on: A498 renal
MDA-MB-468 breast = tested on: MDA-MB-468 breast
MALME-3M melanoma = tested on: MALME-3M melanoma
KM12 colon = tested on: KM12 colon
SNB-19 CNS = tested on: SNB-19 CNS
PC-3 prostate = tested on: PC-3 prostate
SR leukemia = tested on: SR leukemia
MCF7 breast = tested on: MCF7 breast
NCI-H23 lung = tested on: NCI-H23 lung
OVCAR-8 ovarian = tested on: OVCAR-8 ovarian
EKVX NSCLC = tested on: EKVX NSCLC
CAKI-1 renal = tested on: CAKI-1 renal
LOX IMVI melanoma = tested on: LOX IMVI melanoma
HOP-92 NSCLC = tested on: HOP-92 NSCLC
OVCAR-4 ovarian = tested on: OVCAR-4 ovarian
SK-MEL-5 melanoma = tested on: SK-MEL-5 melanoma
RPMI-8226 leukemia = tested on: RPMI-8226 leukemia
NCI-H460 lung = tested on: NCI-H460 lung
BT-549 breast = tested on: BT-549 breast
IGROV1 ovarian = tested on: IGROV1 ovarian
T-47D breast = tested on: T-47D breast
HL-60(TB) leukemia = tested on: HL-60(TB) leukemia
HT29 colon = tested on: HT29 colon

N#CC1=C(c2ccco2)Nc2c(c(-c3ccccc3)nn2-c2ccccc2)C12C(=O)Nc1ccc(Cl)cc12 (stereo not given)
GI50 (SK-MEL-28 melanoma): 15.5 µM | TGI (SK-MEL-28 melanoma): 33 µM | GI50 (HOP-62 NSCLC): 14.8 µM | TGI (HOP-62 NSCLC): 28.9 µM | GI50 (MDA-MB-435): 34.8 µM | TGI (MDA-MB-435): > 100 µM | GI50 (SF-295 CNS): 16.9 µM | TGI (SF-295 CNS): 56.3 µM | GI50 (A549 NSCLC): 11.6 µM | TGI (A549 NSCLC): 25.1 µM | GI50 (786-0 renal): 16.2 µM | TGI (786-0 renal): 56 µM | GI50 (RXF 393 renal): 13.2 µM | TGI (RXF 393 renal): 29.9 µM | GI50 (CCRF-CEM leukemia): 49.7 µM | TGI (CCRF-CEM leukemia): > 100 µM | GI50 (UACC-62 melanoma): 11.4 µM | TGI (UACC-62 melanoma): 28.2 µM | GI50 (NCI-H226 lung): 17.5 µM | TGI (NCI-H226 lung): 50.2 µM | GI50 (UACC-257 melanoma): 16.6 µM | TGI (UACC-257 melanoma): 41.4 µM | GI50 (OVCAR-3 ovarian): 20.4 µM | TGI (OVCAR-3 ovarian): 61 µM | GI50 (NCI/ADR-RES ovarian): 14.8 µM | TGI (NCI/ADR-RES ovarian): 30 µM | GI50 (HS 578T breast): 12.6 µM | TGI (HS 578T breast): 40.9 µM | GI50 (SF-268 CNS): 17.8 µM | TGI (SF-268 CNS): 90.1 µM | GI50 (OVCAR-5 ovarian): 23.8 µM | TGI (OVCAR-5 ovarian): > 100 µM | GI50 (ACHN renal): 18.1 µM | TGI (ACHN renal): 61 µM | GI50 (DU-145 prostate): 19.4 µM | TGI (DU-145 prostate): 43.9 µM | GI50 (NCI-H522 lung): 14.5 µM | TGI (NCI-H522 lung): 38.8 µM | GI50 (SW-620 colon): 30.3 µM | TGI (SW-620 colon): > 100 µM | GI50 (M14 melanoma): 15 µM | TGI (M14 melanoma): 32.7 µM | GI50 (K-562 leukemia): 16.6 µM | TGI (K-562 leukemia): > 100 µM | GI50 (SF-539 CNS): 17.9 µM | TGI (SF-539 CNS): 40.6 µM | GI50 (COLO 205 colon): 14.7 µM | TGI (COLO 205 colon): 29.7 µM | GI50 (SN12C renal): 17 µM | TGI (SN12C renal): 36.7 µM | GI50 (HCT-15 colon): 19.6 µM | TGI (HCT-15 colon): > 100 µM | GI50 (U251 CNS): 13.3 µM | TGI (U251 CNS): 29.2 µM | GI50 (MOLT-4 leukemia): 6.05 µM | TGI (MOLT-4 leukemia): 91.2 µM | GI50 (HCT-116 colon): 13.1 µM | TGI (HCT-116 colon): 26 µM | GI50 (HCC-2998 colon): 19.2 µM | TGI (HCC-2998 colon): 58.9 µM | GI50 (SK-OV-3 ovarian): 15.8 µM | TGI (SK-OV-3 ovarian): 33.9 µM | GI50 (TK-10 renal): 15 µM | TGI (TK-10 renal): 30.6 µM | GI50 (A498 renal): 14.5 µM | TGI (A498 renal): 30.9 µM | GI50 (MDA-MB-468 breast): 19 µM | TGI (MDA-MB-468 breast): 64.7 µM | GI50 (MALME-3M melanoma): 14.7 µM | TGI (MALME-3M melanoma): 29.8 µM | GI50 (KM12 colon): 49.5 µM | TGI (KM12 colon): > 100 µM | GI50 (SNB-19 CNS): 17.4 µM | TGI (SNB-19 CNS): 46 µM | GI50 (PC-3 prostate): 12 µM | TGI (PC-3 prostate): 28 µM | GI50 (SR leukemia): 23.3 µM | TGI (SR leukemia): > 100 µM | GI50 (MCF7 breast): 15.7 µM | TGI (MCF7 breast): 49.7 µM | GI50 (NCI-H23 lung): 15.5 µM | TGI (NCI-H23 lung): 32.4 µM | GI50 (OVCAR-8 ovarian): 15.7 µM | TGI (OVCAR-8 ovarian): 30.7 µM | GI50 (EKVX NSCLC): 16.5 µM | TGI (EKVX NSCLC): 66 µM | GI50 (CAKI-1 renal): 29.5 µM | TGI (CAKI-1 renal): > 100 µM | GI50 (LOX IMVI melanoma): 19.2 µM | TGI (LOX IMVI melanoma): 47.1 µM | GI50 (HOP-92 NSCLC): 12.8 µM | TGI (HOP-92 NSCLC): 28.5 µM | GI50 (OVCAR-4 ovarian): 15.4 µM | TGI (OVCAR-4 ovarian): 33.3 µM | GI50 (SK-MEL-5 melanoma): 18 µM | TGI (SK-MEL-5 melanoma): 41.8 µM | GI50 (RPMI-8226 leukemia): 18.7 µM | TGI (RPMI-8226 leukemia): > 100 µM | GI50 (NCI-H460 lung): 14.1 µM | TGI (NCI-H460 lung): 31.8 µM | GI50 (BT-549 breast): 12.2 µM | TGI (BT-549 breast): 28.2 µM | GI50 (IGROV1 ovarian): 16.3 µM | TGI (IGROV1 ovarian): 38.4 µM | GI50 (T-47D breast): 19.5 µM | TGI (T-47D breast): > 100 µM | GI50 (HL-60(TB) leukemia): 15 µM | TGI (HL-60(TB) leukemia): > 100 µM | GI50 (HT29 colon): 14.6 µM | TGI (HT29 colon): 30.2 µM
